The numbers were not newly measured in patent US11311529B2, “Topical formulations of 5-α-reductase inhibitors and uses thereof” (Varsona Therapeutics, Inc., priority 2018, dated 2022), which cites them from elsewhere.

The test system of one data set is DHT. Particulars: 5 mg daily dose, oral, people suffering from BPH.
For another data set, the system named is men. To be noted: oral, over a period of 12 to 24 weeks, compared with oral finasteride.

`C[C@]12C=CC(=O)N[C@@H]1CC[C@@H]1[C@@H]2CC[C@]2(C)[C@@H](C(=O)Nc3cc(C(F)(F)F)ccc3C(F)(F)F)CC[C@@H]12` [oral dutasteride, (5α,17β)-N-[2,5 bis(trifluoromethyl)phenyl]-3-oxo-4-azaandrost-1-ene-17-carboxamide]: in the data set on DHT, the DHT blocked is given as 98.4%+/−1.2. Moreover, in the data set with men, the hair count results was “better hair count results than oral finasteride”.

With `CC(C)(C)NC(=O)[C@H]1CC[C@H]2[C@@H]3CC[C@H]4NC(=O)C=C[C@]4(C)[C@H]3CC[C@]12C` [oral finasteride, finasteride], the DHT blocked with DHT is 70.8+/−18.3%.
